Experimental data taken from patent publication US12448461B2, “ABCB5 ligands and substrates” (Children's Medical Center Corporation, priority 2018, dated 2025).
One block for each compound: values may come before it.

Legend:
[1] = system: Tyr::CreER; BrafCA; Ptenlox/lox genetic mouse melanoma model; assay: Vemurafenib treatment in 4-HT inducible genetic mouse melanoma model on ABCB5 WT or KO background; type: in vivo; details: vemurafenib-treated ABCB5 WT mice
ABCB5 [2] = assay: Surface plasmon resonance (SPR) binding and antibody competition on PIP1, PIP2 and PIP3 surfaces
[3] = target: T1, recombinant human ABCB5 isoform 2 (Homo sapiens, UniProt Q2M3G0); assay: ELISA: plates coated with PIP1, PIP2 or PIP3 incubated with recombinant human ABCB5 isoform 2; type: binding
T1 sequence (Q2M3G0 446-1257): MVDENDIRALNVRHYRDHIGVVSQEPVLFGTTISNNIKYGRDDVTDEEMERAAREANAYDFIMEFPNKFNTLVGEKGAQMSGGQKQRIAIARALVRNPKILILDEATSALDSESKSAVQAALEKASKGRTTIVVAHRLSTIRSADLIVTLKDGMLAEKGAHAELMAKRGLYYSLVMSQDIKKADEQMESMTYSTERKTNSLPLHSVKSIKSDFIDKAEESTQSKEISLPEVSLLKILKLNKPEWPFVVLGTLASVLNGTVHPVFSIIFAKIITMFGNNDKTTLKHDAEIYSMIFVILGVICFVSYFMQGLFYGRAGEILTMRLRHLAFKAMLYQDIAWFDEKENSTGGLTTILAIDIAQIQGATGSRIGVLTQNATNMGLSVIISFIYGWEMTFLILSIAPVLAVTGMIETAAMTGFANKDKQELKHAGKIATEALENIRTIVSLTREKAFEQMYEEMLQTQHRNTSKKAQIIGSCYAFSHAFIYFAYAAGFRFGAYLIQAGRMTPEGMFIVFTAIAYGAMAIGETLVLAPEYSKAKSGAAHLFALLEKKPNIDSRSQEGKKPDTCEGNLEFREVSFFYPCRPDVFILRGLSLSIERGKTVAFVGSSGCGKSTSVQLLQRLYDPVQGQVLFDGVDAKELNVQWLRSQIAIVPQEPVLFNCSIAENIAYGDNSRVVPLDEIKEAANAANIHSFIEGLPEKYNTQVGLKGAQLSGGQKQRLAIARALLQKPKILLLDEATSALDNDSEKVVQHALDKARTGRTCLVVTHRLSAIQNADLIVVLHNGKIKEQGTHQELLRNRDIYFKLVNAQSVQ
Procedure: (§1) ELISA plates coated with PIP1, PIP2 or PIP3 were incubated with either purified recombinant human ABCB5 isoform 2 (812 aa, NCBI Reference Sequence: NP_848654.3), wildtype mouse Abcb5-expressing skin tissue, or Abcb5 non-expressing skin tissue derived from ABCB5 knockout mice (as a specificity control), followed by bound ABCB5 detection using a murine ABCB5-specific monoclonal antibody (Ksander et al Nature 2014). […] Similar results were obtained using the murine ABCB5 mAb clone 3C2-1D12 (Frank NY et al. J Biol Chem. 2003) as a detection antibody.

murine Abcb5 = target: T2, murine Abcb5 (Mus musculus, UniProt B5X0E4); assay: ELISA: plates coated with PIP1, PIP2 or PIP3 incubated with wildtype mouse Abcb5-expressing skin tissue; type: binding; details: absent in Abcb5 knockout tissue
T2 construct: wildtype mouse Abcb5-expressing skin tissue; from tissue; host or cells: wild-type mouse skin tissue
T2 sequence (B5X0E4 1-1255): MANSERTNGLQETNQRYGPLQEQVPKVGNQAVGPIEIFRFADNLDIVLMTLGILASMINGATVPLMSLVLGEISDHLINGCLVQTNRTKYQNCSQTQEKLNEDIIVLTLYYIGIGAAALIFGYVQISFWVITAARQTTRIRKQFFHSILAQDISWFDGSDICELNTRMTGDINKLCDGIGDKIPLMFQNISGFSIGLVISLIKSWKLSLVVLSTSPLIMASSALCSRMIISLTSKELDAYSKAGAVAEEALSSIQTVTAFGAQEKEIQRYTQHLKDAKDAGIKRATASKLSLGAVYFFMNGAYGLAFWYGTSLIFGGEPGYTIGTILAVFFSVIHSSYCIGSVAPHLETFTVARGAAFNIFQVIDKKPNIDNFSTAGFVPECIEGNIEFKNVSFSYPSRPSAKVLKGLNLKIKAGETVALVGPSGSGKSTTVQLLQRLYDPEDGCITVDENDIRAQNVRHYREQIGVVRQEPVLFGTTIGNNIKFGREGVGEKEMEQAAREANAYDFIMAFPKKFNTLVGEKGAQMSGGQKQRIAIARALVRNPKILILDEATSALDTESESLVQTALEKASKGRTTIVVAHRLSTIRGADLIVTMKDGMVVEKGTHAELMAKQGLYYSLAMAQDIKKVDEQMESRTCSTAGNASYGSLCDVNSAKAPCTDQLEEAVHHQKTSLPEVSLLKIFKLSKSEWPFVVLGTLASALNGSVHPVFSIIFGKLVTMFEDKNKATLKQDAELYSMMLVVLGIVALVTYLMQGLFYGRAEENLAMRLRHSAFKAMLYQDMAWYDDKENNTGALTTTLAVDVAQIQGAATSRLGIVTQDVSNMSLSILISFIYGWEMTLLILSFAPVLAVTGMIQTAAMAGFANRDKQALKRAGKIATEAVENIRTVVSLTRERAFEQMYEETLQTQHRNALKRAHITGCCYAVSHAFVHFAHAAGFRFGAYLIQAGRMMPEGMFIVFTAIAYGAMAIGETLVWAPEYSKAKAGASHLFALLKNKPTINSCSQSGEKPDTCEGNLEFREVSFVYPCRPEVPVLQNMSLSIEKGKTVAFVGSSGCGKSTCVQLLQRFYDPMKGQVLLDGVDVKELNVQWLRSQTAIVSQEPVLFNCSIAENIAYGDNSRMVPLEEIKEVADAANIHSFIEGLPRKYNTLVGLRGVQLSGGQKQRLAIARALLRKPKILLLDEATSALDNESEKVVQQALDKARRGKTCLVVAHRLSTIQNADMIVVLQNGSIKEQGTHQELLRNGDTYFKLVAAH
Procedure: as §1

ABCB5 [4] = target: T3, ABCB5 (Homo sapiens, UniProt Q2M3G0); assay: Immunoprecipitation with anti-PIP2 or anti-PIP3 antibody from ABCB5-expressing melanoma cells, ABCB5 immunoblot; type: binding
T3 construct: Immunoprecipitation from human ABCB5-expressing melanoma cells; endogenous in cells
T3 sequence (Q2M3G0 1-1257): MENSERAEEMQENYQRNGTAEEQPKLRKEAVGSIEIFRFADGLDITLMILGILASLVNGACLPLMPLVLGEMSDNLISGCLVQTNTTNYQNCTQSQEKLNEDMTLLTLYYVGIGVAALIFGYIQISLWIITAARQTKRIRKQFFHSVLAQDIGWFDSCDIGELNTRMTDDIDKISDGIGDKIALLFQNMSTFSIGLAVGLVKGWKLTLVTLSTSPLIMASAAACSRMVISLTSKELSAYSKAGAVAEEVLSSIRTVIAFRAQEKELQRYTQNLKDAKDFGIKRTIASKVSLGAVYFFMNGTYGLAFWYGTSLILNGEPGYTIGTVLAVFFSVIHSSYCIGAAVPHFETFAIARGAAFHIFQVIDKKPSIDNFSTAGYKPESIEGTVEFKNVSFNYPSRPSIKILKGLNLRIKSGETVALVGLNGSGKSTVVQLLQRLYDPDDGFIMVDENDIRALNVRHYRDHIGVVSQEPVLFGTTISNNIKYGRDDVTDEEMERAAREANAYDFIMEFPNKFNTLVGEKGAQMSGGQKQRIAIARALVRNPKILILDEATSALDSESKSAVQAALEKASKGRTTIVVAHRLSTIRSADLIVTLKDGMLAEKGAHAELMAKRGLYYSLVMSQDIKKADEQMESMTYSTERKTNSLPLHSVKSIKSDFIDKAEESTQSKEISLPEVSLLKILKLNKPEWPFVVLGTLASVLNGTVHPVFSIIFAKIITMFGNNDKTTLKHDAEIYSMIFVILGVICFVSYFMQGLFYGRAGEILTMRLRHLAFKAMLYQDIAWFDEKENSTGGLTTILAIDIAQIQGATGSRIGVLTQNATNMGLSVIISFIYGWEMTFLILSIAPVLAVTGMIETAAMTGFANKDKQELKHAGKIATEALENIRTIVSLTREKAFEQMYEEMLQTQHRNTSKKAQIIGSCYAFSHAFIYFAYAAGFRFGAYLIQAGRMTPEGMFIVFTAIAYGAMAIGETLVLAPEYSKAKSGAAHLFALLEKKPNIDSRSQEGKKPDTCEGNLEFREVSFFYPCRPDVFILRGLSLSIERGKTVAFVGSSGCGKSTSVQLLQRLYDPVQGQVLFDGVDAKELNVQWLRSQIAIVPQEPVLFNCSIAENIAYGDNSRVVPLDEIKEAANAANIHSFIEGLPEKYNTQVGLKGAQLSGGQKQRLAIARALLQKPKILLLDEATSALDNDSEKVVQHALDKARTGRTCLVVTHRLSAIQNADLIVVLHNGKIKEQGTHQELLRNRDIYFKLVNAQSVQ
From the text: PIP2 pulldown was confirmed using immunoblotting with PIP2 antibody in FIG. 1A (lower panel).

[5] = target: T4, purified recombinant human ABCB5 (Homo sapiens, UniProt Q2M3G0); assay: Competition ELISA: PIP1, PIP2 or PIP3 binding to ABCB5 with increasing doses of competitor
T4 sequence (Q2M3G0 1-812 isoform Q2M3G0-1): T1 sequence (Q2M3G0 446-1257)
Procedure: ELISA plates coated with PIP1, PIP2 or PIP3 were incubated with purified recombinant human ABCB5 (P-glycoprotein ABCB5 [Homo sapiens] GenBank: AAO73470.1) for binding, in the absence or presence of increasing doses of PtdIns-(1,2-dioctanoyl), a synthetic analog of natural phosphatidylinositol (PtdIns) containing C8:0 fatty acids at the sn-1 and sn-2 positions (CAS Registry Number 899827-36-2).

Compound: CCCS(=O)(=O)Nc1ccc(F)c(C(=O)c2c[nH]c3ncc(-c4ccc(Cl)cc4)cc23)c1F [vemurafenib]
formation of vemurafenib-resistant tumors [1]: 100%

binding to ABCB5 by SPR (ABCB5 [2]): binding
relative efficiency of binding to ABCB5 ([3]; PIP2 and PIP3 compared with PIP1): more efficient
binding to recombinant human ABCB5 ([3]; detection with ABCB5-specific monoclonal antibody): bound
binding to murine Abcb5 (murine Abcb5): bound
co-precipitation of ABCB5 on lipid pulldown (ABCB5 [4]): co-precipitation of ABCB5 protein
Compound: PIP3

inhibition of binding of PIP1, PIP2 or PIP3 to ABCB5 ([5]; increasing doses): competitively inhibit
concentration of apparent saturation of the inhibitory effect ([5]; inhibition of PIP1, PIP2 or PIP3 binding to ABCB5): 0.1 mM
Compound: CCCCCCCC(=O)OCC(COP(=O)(O)OC1C(O)C(O)C(O)C(O)C1O)OC(=O)CCCCCCC (stereo not drawn) [PtdIns-(1,2-dioctanoyl)]

binding to ABCB5 by SPR (ABCB5 [2]): shown to bind
Compound: CCCCCCCC(=O)OC[C@H](COP(=O)(O)O[C@@H]1[C@H](O)[C@H](O)[C@@H](OP(=O)(O)O)[C@H](OP(=O)(O)O)[C@H]1O)OC(=O)CCCCCCC [PI (4,5) P2, diC8]
